Data taken from ChEMBL document CHEMBL1201862, “PubChem BioAssay data set” (2004).
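All cell lines were grown in 96-well plates and treated with compound for 48 hours. Here, GI50 denotes the concentration required for 50% inhibition of growth.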 Activity calls are given as the source filed them. No stated cut-off is given here; in the data, active = GI50 up to about 1.1 µM and inactive = higher.

What was measured:
Assay in all cases: NCI anticancer screen, dose series, 48 h
ACHN = system: ACHN
EKVX = system: EKVX
RXF 393 = system: RXF 393
IGROV-1 = system: IGROV-1
UACC-62 = system: UACC-62
NCI/ADR-RES = system: NCI/ADR-RES
786-0 = system: 786-0
HOP-62 = system: HOP-62
TK-10 = system: TK-10
OVCAR-4 = system: OVCAR-4
CAKI-1 = system: CAKI-1
M14 = system: M14
SK-MEL-28 = system: SK-MEL-28
UO-31 = system: UO-31
COLO 205 = system: COLO 205
MDA-MB-435 = system: MDA-MB-435
U-251 = system: U-251
A498 = system: A498
HCC 2998 = system: HCC 2998

Measured: GI50

CC(C)(C)C(=O)CC(=O)C(F)(F)C(F)(F)C(F)(F)F
inactive: ACHN 15.3 µM | EKVX 15.2 µM | RXF 393 17.3 µM | IGROV-1 11.9 µM | UACC-62 15.3 µM | NCI/ADR-RES 18.6 µM | 786-0 17 µM | HOP-62 18.3 µM | TK-10 18.2 µM | OVCAR-4 13.2 µM | CAKI-1 14.7 µM | M14 16 µM | SK-MEL-28 14.1 µM | UO-31 20 µM | COLO 205 19 µM | MDA-MB-435 15.5 µM | U-251 18.4 µM

O=C([O-])C(O)C(O)C(=O)O.[K+] (centres undefined) [POTASSIUM HYDROGENTARTRATE]
inactive: ACHN > 100 µM | EKVX > 100 µM | RXF 393 > 100 µM | IGROV-1 > 100 µM | UACC-62 > 100 µM | NCI/ADR-RES > 100 µM | 786-0 > 100 µM | HOP-62 > 100 µM | TK-10 > 100 µM | OVCAR-4 > 100 µM | CAKI-1 > 100 µM | A498 > 100 µM | M14 > 100 µM | SK-MEL-28 > 100 µM | UO-31 > 100 µM | COLO 205 > 100 µM | MDA-MB-435 > 100 µM | U-251 > 100 µM

Cc1cc2c(c(=O)o1)C1=S(SC(c3ccccc3)=C1)S2 (centres undefined)
inactive: ACHN 34.7 µM | RXF 393 20.2 µM | IGROV-1 55.5 µM | UACC-62 39.2 µM | NCI/ADR-RES 83.4 µM | 786-0 15 µM | HOP-62 20.8 µM | TK-10 32.2 µM | OVCAR-4 29 µM | A498 13.9 µM | M14 45.5 µM | SK-MEL-28 > 100 µM | UO-31 26.5 µM | COLO 205 > 100 µM | U-251 22.5 µM

N=C(CSS(=O)(=O)O)NC1CC2CCC1C2 (centres undefined)
inactive: ACHN > 100 µM | RXF 393 > 100 µM | IGROV-1 > 100 µM | UACC-62 > 100 µM | NCI/ADR-RES > 100 µM | 786-0 > 100 µM | HOP-62 95.7 µM | TK-10 > 100 µM | OVCAR-4 > 100 µM | CAKI-1 > 100 µM | A498 > 100 µM | M14 > 100 µM | SK-MEL-28 > 100 µM | COLO 205 > 100 µM | MDA-MB-435 95.5 µM | U-251 57.8 µM

CC1(C)OCC(C2OC(On3nnc4ccc(Cl)cc43)C3OC(C)(C)OC23)O1 (centres undefined)
inactive: ACHN > 100 µM | EKVX > 100 µM | RXF 393 > 100 µM | IGROV-1 > 100 µM | UACC-62 > 100 µM | NCI/ADR-RES > 100 µM | 786-0 > 100 µM | HOP-62 > 100 µM | TK-10 > 100 µM | OVCAR-4 > 100 µM | CAKI-1 > 100 µM | A498 11.7 µM | M14 > 100 µM | SK-MEL-28 > 100 µM | COLO 205 > 100 µM | MDA-MB-435 > 100 µM | U-251 > 100 µM

CCCCOc1ccc(S(=O)(=O)N/C(N)=N/c2ccc(Cl)cc2)cc1
inactive: ACHN 14.6 µM | EKVX 10.3 µM | RXF 393 16.1 µM | IGROV-1 14.7 µM | UACC-62 14.1 µM | NCI/ADR-RES 16 µM | 786-0 14.7 µM | HOP-62 20.2 µM | TK-10 14.9 µM | OVCAR-4 10.2 µM | A498 12.1 µM | M14 18.7 µM | SK-MEL-28 16.7 µM | UO-31 14.8 µM | COLO 205 25.2 µM | U-251 14.8 µM

CC1(C)OP(=O)(c2ccccc2)C=C1Sc1ccc([N+](=O)[O-])cc1[N+](=O)[O-] (centres undefined)
inactive: ACHN > 100 µM | EKVX > 100 µM | IGROV-1 > 100 µM | UACC-62 35 µM | NCI/ADR-RES 80.5 µM | 786-0 38.6 µM | HOP-62 > 100 µM | TK-10 > 100 µM | OVCAR-4 29.7 µM | CAKI-1 > 100 µM | A498 > 100 µM | M14 63.8 µM | SK-MEL-28 85.1 µM | COLO 205 > 100 µM | MDA-MB-435 70 µM | U-251 54.7 µM

Cc1ccc2[nH]c3[nH]c(=O)[nH]c(=O)c3c2c1
inactive: ACHN > 100 µM | EKVX > 100 µM | RXF 393 > 100 µM | IGROV-1 > 100 µM | UACC-62 > 100 µM | NCI/ADR-RES > 100 µM | 786-0 > 100 µM | HOP-62 > 100 µM | TK-10 > 100 µM | CAKI-1 > 100 µM | A498 > 100 µM | M14 > 100 µM | UO-31 > 100 µM | COLO 205 > 100 µM | MDA-MB-435 > 100 µM

CC(=O)NC1(C)C(C)C2CC1C(C)C2(C)C (centres undefined)
inactive: ACHN > 100 µM | EKVX > 100 µM | RXF 393 > 100 µM | IGROV-1 > 100 µM | UACC-62 > 100 µM | 786-0 > 100 µM | HOP-62 > 100 µM | TK-10 > 100 µM | OVCAR-4 > 100 µM | CAKI-1 > 100 µM | A498 > 100 µM | M14 > 100 µM | SK-MEL-28 > 100 µM | UO-31 > 100 µM | HCC 2998 > 100 µM | COLO 205 > 100 µM | MDA-MB-435 > 100 µM | U-251 > 100 µM

Cc1nnc(Nc2ccccc2)o1
inactive: ACHN > 100 µM | EKVX > 100 µM | RXF 393 > 100 µM | UACC-62 > 100 µM | NCI/ADR-RES > 100 µM | 786-0 > 100 µM | TK-10 > 100 µM | OVCAR-4 > 100 µM | CAKI-1 > 100 µM | M14 > 100 µM | SK-MEL-28 > 100 µM | UO-31 > 100 µM | COLO 205 > 100 µM | MDA-MB-435 > 100 µM | U-251 > 100 µM

O=C(OC1C(Oc2ccccc2COC(=O)C2(O)C=CCCC2=O)OC(CO)C(O)C1O)c1ccccc1 (centres undefined)
inactive: ACHN 34.2 µM | IGROV-1 25.6 µM | UACC-62 40.2 µM | NCI/ADR-RES 34.8 µM | 786-0 25.3 µM | HOP-62 42 µM | TK-10 31.3 µM | OVCAR-4 41.2 µM | CAKI-1 4.11 µM | M14 35 µM | SK-MEL-28 68.4 µM | UO-31 26.5 µM | COLO 205 23.3 µM | MDA-MB-435 27.5 µM | U-251 20.8 µM

COC(NC(=O)Nc1ccc(C)cc1)(C(F)(F)F)C(F)(F)F
inactive: ACHN 24 µM | RXF 393 23.1 µM | IGROV-1 26.5 µM | UACC-62 10.6 µM | NCI/ADR-RES 25.9 µM | 786-0 54.2 µM | HOP-62 42.8 µM | TK-10 42.8 µM | OVCAR-4 34.2 µM | A498 30.3 µM | M14 29.5 µM | SK-MEL-28 42.2 µM | UO-31 17.5 µM | COLO 205 18.7 µM | MDA-MB-435 30.9 µM | U-251 18.1 µM
